Our source for the MIC values is publication PMC10648927, “Examining the activity of cefepime-taniborbactam against Burkholderia cepacia complex and Burkholderia gladioli isolated from cystic fibrosis patients in the United States” (Antimicrobial Agents and Chemotherapy, 2023).

Common to all, as to set-up: agar dilution MIC, growth inhibition of clinical Burkholderia isolates
One experiment concerns T1, B. cenocepacia AU14381.
T1 construct: AU14381
Put plainly: microbe, parasite or virus in culture. Particulars: Burkholderia cenocepacia, AU14381. The text has this: (§1) We evaluated the activity of cefepime-taniborbactam against a panel of 140 Bcc clinical isolates (i.e., species ambifaria, arboris, cenocepacia, cepacia, contaminans, diffusa, dolosa, multivorans, pseudomultivorans, pyrrocinia, seminalis, stabilis, ubonensis, and vietnamiensis) and 10 B. gladioli from the Burkholderia cepacia Research Laboratory and Repository (University of Michigan) ([22], [25], [31]) (Supplementary Material, Tables S1 and S2). K. pneumoniae ATCC 700603 carrying bla SHV-18 and K. pneumoniae ATCC BAA-1705 harboring bla KPC strains were used as controls for β-lactam and β-lactamase inhibitor integrity; all controls tested within the anticipated quality control ranges (Table S3). Minimum inhibitory concentration (MIC) results were interpreted using Clinical Laboratory Standards Institute (CLSI) breakpoints, where available ([32]). […] An alternative cefepime-taniborbactam provisional susceptible breakpoint of ≤16 µg/mL is supported by in vivo efficacy data from neutropenic murine infection models (thigh, complicated urinary tract, and lung) ([15] [–] [17]) and data from safety and pharmacokinetics studies in human volunteers ([33], [34]). The cefepime-taniborbactam antimicrobial activity was compared to cefepime, meropenem, meropenem-vaborbactam, and levofloxacin, to data published for first-line agents (e.g., ceftazidime and trimethoprim-sulfamethoxazole) and to those recommended by the CLSI for clinical testing (e.g., minocycline) against the Bcc and B. gladioli panel ([22], [32]). Of note, the MICs of all these agents were determined by the agar dilution method, which alongside broth microdilution, are recommended by the CLSI to assess the antimicrobial susceptibility of Bcc isolates ([32]).

In another experiment the test system is T2, B. cenocepacia AU16448.
T2 construct: AU16448
Put plainly: microbe, parasite or virus in culture. Particulars: Burkholderia cenocepacia, AU16448.
Source text: as §1

A further experiment relates to T3, B. cenocepacia AU19276.
T3 construct: AU19276
The experiment can be described thus: microbe, parasite or virus in culture. Conditions: Burkholderia cenocepacia, AU19276.
Source text: as §1

A further experiment concerns T4, B. cenocepacia AU9292.
T4 construct: AU9292
Put plainly: microbe, parasite or virus in culture. Conditions: Burkholderia cenocepacia, AU9292.
Source text: as §1

A further experiment concerns T5, B. cepacia AU15249.
T5 construct: AU15249
The experiment can be described thus: microbe, parasite or virus in culture. Conditions: Burkholderia cepacia, AU15249.
Source text: as §1

Another experiment concerns T6, B. cepacia AU16396.
T6 construct: AU16396
The experiment can be described thus: microbe, parasite or virus in culture. Conditions: Burkholderia cepacia, AU16396.
Source text: as §1

A further experiment deals with T7, B. cepacia AU23707.
T7 construct: AU23707
Put plainly: microbe, parasite or virus in culture. Conditions: Burkholderia cepacia, AU23707.
Source text: as §1

The test system of the next experiment is T8, B. cepacia AU27816.
T8 construct: AU27816
Put plainly: microbe, parasite or virus in culture. Particulars: Burkholderia cepacia, AU27816.
Source text: as §1

The subject of another experiment is T9, B. contaminans AU17641.
T9 construct: AU17641
The experiment can be described thus: organism not typed.
Source text: as §1

The test system of the next experiment is T10, B. contaminans AU22662.
T10 construct: AU22662
Put plainly: organism not typed.
Source text: as §1

The test system of the next experiment is T11, B. dolosa AU9336.
T11 construct: AU9336
The experiment can be described thus: microbe, parasite or virus in culture. Particulars: Burkholderia dolosa, AU9336.
Source text: as §1

Another experiment concerns T12, B. multivorans AU10897.
T12 construct: AU10897
The experiment can be described thus: microbe, parasite or virus in culture. Conditions: Burkholderia multivorans, AU10897.
Source text: as §1

The test system of a further experiment is T13, B. multivorans AU14328.
T13 construct: AU14328
Put plainly: microbe, parasite or virus in culture. Conditions: Burkholderia multivorans, AU14328.
Source text: as §1

A further experiment deals with T14, B. multivorans AU20929.
T14 construct: AU20929
Put plainly: microbe, parasite or virus in culture. Particulars: Burkholderia multivorans, AU20929.
Source text: as §1

For the next experiment, the system named is T15, B. multivorans AU22436.
T15 construct: AU22436
The experiment can be described thus: microbe, parasite or virus in culture. Particulars: Burkholderia multivorans, AU22436.
Source text: as §1

For a further experiment, the system named is T16, B. multivorans AU22892.
T16 construct: AU22892
Put plainly: microbe, parasite or virus in culture. Conditions: Burkholderia multivorans, AU22892.
Source text: as §1

The test system of another experiment is T17, B. multivorans AU30760.
T17 construct: AU30760
The experiment can be described thus: microbe, parasite or virus in culture. Conditions: Burkholderia multivorans, AU30760.
Source text: as §1

Another experiment deals with T18, B. pyrrocinia AU4348.
T18 construct: AU4348
Put plainly: microbe, parasite or virus in culture. Particulars: Burkholderia pyrrocinia, AU4348.
Source text: as §1

The next experiment deals with T19, B. ubonensis AU7314.
T19 construct: AU7314
Put plainly: organism not typed.
Source text: as §1

Another experiment deals with T20, B. vietnamiensis AU10214.
T20 construct: AU10214
The experiment can be described thus: microbe, parasite or virus in culture. Conditions: Burkholderia vietnamiensis, AU10214.
Source text: as §1

Another experiment deals with T21, B. vietnamiensis AU28056.
T21 construct: AU28056
Put plainly: microbe, parasite or virus in culture. Conditions: Burkholderia vietnamiensis, AU28056.
Source text: as §1

Another experiment relates to T22, B. vietnamiensis AU3997.
T22 construct: AU3997
The experiment can be described thus: microbe, parasite or virus in culture. Conditions: Burkholderia vietnamiensis, AU3997.
Source text: as §1

≈ marks a conversion by molar mass, not a printed value.

For `CO/N=C(\C(=O)N[C@@H]1C(=O)N2C(C(=O)[O-])=C(C[N+]3(C)CCCC3)CS[C@H]12)c1csc(N)n1` [cefepime], the MIC against B. cenocepacia AU14381 is 32 µg/mL (≈ 66.6 µM); against B. cenocepacia AU16448, 16 µg/mL (≈ 33.3 µM); with B. cenocepacia AU19276, 8 µg/mL (≈ 16.6 µM); against B. cenocepacia AU9292, 32 µg/mL (≈ 66.6 µM); in the experiment with B. cepacia AU15249, 32 µg/mL (≈ 66.6 µM); with B. cepacia AU16396, 32 µg/mL (≈ 66.6 µM). Also, the MIC in the experiment on B. cepacia AU23707 was 32 µg/mL (≈ 66.6 µM); in the experiment with B. cepacia AU27816 it was 16 µg/mL (≈ 33.3 µM); in the experiment with B. contaminans AU17641, 32 µg/mL (≈ 66.6 µM); against B. contaminans AU22662, 16 µg/mL (≈ 33.3 µM); with B. dolosa AU9336, > 32 µg/mL; against B. multivorans AU10897 it was 32 µg/mL (≈ 66.6 µM). Also, the MIC in the experiment with B. multivorans AU14328 worked out at 8 µg/mL (≈ 16.6 µM); in the experiment with B. multivorans AU20929, 8 µg/mL (≈ 16.6 µM); in the experiment on B. multivorans AU22436 it was 8 µg/mL (≈ 16.6 µM); against B. multivorans AU22892, 2 µg/mL (≈ 4.16 µM); against B. multivorans AU30760, 8 µg/mL (≈ 16.6 µM); against B. pyrrocinia AU4348, 32 µg/mL (≈ 66.6 µM). The MIC with B. ubonensis AU7314 was > 32 µg/mL; with B. vietnamiensis AU10214, 8 µg/mL (≈ 16.6 µM); against B. vietnamiensis AU28056, 16 µg/mL (≈ 33.3 µM); with B. vietnamiensis AU3997, 8 µg/mL (≈ 16.6 µM).

In the case of `C[C@H]1COc2c(N3CCN(C)CC3)c(F)cc3c(=O)c(C(=O)O)cn1c23` [levofloxacin], the MIC against B. cenocepacia AU14381 is > 32 µg/mL; in the experiment with B. cenocepacia AU16448, 8 µg/mL (≈ 22.1 µM); against B. cenocepacia AU19276, 0.5 µg/mL (≈ 1.38 µM); against B. cenocepacia AU9292, 32 µg/mL (≈ 88.6 µM); in the experiment on B. cepacia AU15249, 4 µg/mL (≈ 11.1 µM); in the experiment with B. cepacia AU16396, > 32 µg/mL. Also, the MIC against B. cepacia AU23707 is 32 µg/mL (≈ 88.6 µM); against B. cepacia AU27816, 4 µg/mL (≈ 11.1 µM); in the experiment on B. contaminans AU17641, 4 µg/mL (≈ 11.1 µM); in the experiment with B. contaminans AU22662, 4 µg/mL (≈ 11.1 µM); against B. dolosa AU9336 it was 32 µg/mL (≈ 88.6 µM); in the experiment on B. multivorans AU10897, 16 µg/mL (≈ 44.3 µM). In addition, the MIC in the experiment on B. multivorans AU14328 was 2 µg/mL (≈ 5.53 µM); against B. multivorans AU20929 it was 4 µg/mL (≈ 11.1 µM); in the experiment with B. multivorans AU22436 it was > 32 µg/mL; against B. multivorans AU22892, 2 µg/mL (≈ 5.53 µM); against B. multivorans AU30760, 2 µg/mL (≈ 5.53 µM); in the experiment with B. pyrrocinia AU4348, > 32 µg/mL. For the same molecule, the MIC in the experiment with B. ubonensis AU7314 was 4 µg/mL (≈ 11.1 µM); against B. vietnamiensis AU10214, 8 µg/mL (≈ 22.1 µM); against B. vietnamiensis AU28056, 8 µg/mL (≈ 22.1 µM); with B. vietnamiensis AU3997, 8 µg/mL (≈ 22.1 µM).

`C[C@@H](O)[C@H]1C(=O)N2C(C(=O)O)=C(S[C@@H]3CN[C@H](C(=O)N(C)C)C3)[C@H](C)[C@H]12` [meropenem]: the MIC was determined as 4 µg/mL (≈ 10.4 µM) in the experiment with B. cenocepacia AU14381; 4 µg/mL (≈ 10.4 µM) against B. cenocepacia AU16448; 2 µg/mL (≈ 5.22 µM) in the experiment with B. cenocepacia AU19276; 4 µg/mL (≈ 10.4 µM) against B. cenocepacia AU9292; 4 µg/mL (≈ 10.4 µM) in the experiment with B. cepacia AU15249; 8 µg/mL (≈ 20.9 µM) in the experiment on B. cepacia AU16396. Moreover, the MIC in the experiment on B. cepacia AU23707 came to 8 µg/mL (≈ 20.9 µM); with B. cepacia AU27816 it was 4 µg/mL (≈ 10.4 µM); in the experiment with B. contaminans AU17641, 4 µg/mL (≈ 10.4 µM); in the experiment with B. contaminans AU22662, 4 µg/mL (≈ 10.4 µM); in the experiment with B. dolosa AU9336, 8 µg/mL (≈ 20.9 µM); with B. multivorans AU10897, 8 µg/mL (≈ 20.9 µM). Also, the MIC with B. multivorans AU14328 came out at 4 µg/mL (≈ 10.4 µM); with B. multivorans AU20929, 8 µg/mL (≈ 20.9 µM); against B. multivorans AU22436, 8 µg/mL (≈ 20.9 µM); in the experiment with B. multivorans AU22892 it was 4 µg/mL (≈ 10.4 µM); against B. multivorans AU30760, 2 µg/mL (≈ 5.22 µM); against B. pyrrocinia AU4348 it was 4 µg/mL (≈ 10.4 µM). The MIC against B. ubonensis AU7314 turned out to be 32 µg/mL (≈ 83.4 µM); in the experiment with B. vietnamiensis AU10214, 0.5 µg/mL (≈ 1.3 µM); against B. vietnamiensis AU28056, 4 µg/mL (≈ 10.4 µM); in the experiment on B. vietnamiensis AU3997 it was 1 µg/mL (≈ 2.61 µM).
